The nature of data set [1]: Cell viability / cytotoxicity in HeLa transduction assays (flow cytometry FSC/SSC). In kind it is cell-based. The conditions noted are these: human, HeLa cells. The procedure: (§1) HeLa cells were plated (20 000 cells/well) in a 96 well-dish one day prior to transduction. Each delivery mix comprising a PEGylated shuttle agent (monomer or multimer) or a non-PEGylated shuttle agent at the indicated concentration(s) and 10 μM of a fluorescent cargo (e.g., GFP-NLS or DRI-NLS^647) was prepared in 50 μL with RPMI 1640 media completed with 10% human serum. Cells were washed once with PBS 1×, then incubated for 5 minutes with the prepared shuttle/cargo mix, PEGylated shuttle agent/cargo mix, and/or with the cargo alone as a negative control. After the incubation, 100 μL of DMEM containing 10% FBS was added to the mix and removed. Cells were washed once with PBS 1× and incubated in DMEM containing 10% FBS. Cells were then analyzed after a 1-hour incubation by fluorescence microscopy (Revolve, Echo: San Diego, CA, USA) and flow cytometry (Cytoflex™, Beckman Coulter: Indianapolis, IN, USA).
The signal intensity emitted by the fluorescent cargo and the percentage of cargo delivered cells was quantified by flow cytometry. Untreated cells were used to establish a baseline to quantify the increase in fluorescence that results from a successful internalization of the cargo in the presence of the shuttle agent in the treated cells. The percentage of cells with a fluorescence signal greater than the maximum fluorescence of untreated cells, “mean %” or “Pos cells (%)”, was used to identify positive fluorescent cells for determining transduction efficiency. The mean fluorescence intensity (Mean-FITC/APC) is the average of all fluorescence intensities of each cell with a fluorescent signal after delivery of fluorescent cargos. “Delivery scores” were calculated to provide a further indication of the total amount of cargo that was delivered per cell amongst all cargo-positive cells and was calculated by multiplying the mean fluorescence intensity (of at least duplicate samples) measured for the viable cargo-positive cells, by the mean percentage of viable cargo-positive cells, divided by 100,000. Finally, a “Delivery-Viability Score” was sometimes calculated for each peptide as the Mean viability multiplied by the Delivery Score multiplied by 10, enabling a ranking of the shuttle agents in terms of both their transduction activity and toxicity. Furthermore, the events detected by the cytometer and which correspond to the cells (size and granularity) were analyzed. Cellular toxicity (% cell viability) is obtained by comparing the size (FSC) and granularity (SSC) of each cell delivery condition to untreated cells. The delivery conditions of the cells also included the “cargo only” as a control.

Data set [2] concerns HeLa cells. The data set can be described thus: In vitro transduction of GFP-NLS cargo in HeLa cells (flow cytometry and fluorescence microscopy). The class given is cell-based. To be noted: used at 10 μM; 10% human serum. The procedure:
as §1, with “Cells were washed once with PBS 1× and incubated in DMEM containing 10% FBS.” left out
(§2) The signal intensity emitted by the fluorescent cargo and the percentage of cargo delivered cells was quantified by flow cytometry. Untreated cells were used to establish a baseline to quantify the increase in fluorescence that results from a successful internalization of the cargo in the presence of the shuttle agent in the treated cells. The percentage of cells with a fluorescence signal greater than the maximum fluorescence of untreated cells, “mean %” or “Pos cells (%)”, was used to identify positive fluorescent cells for determining transduction efficiency. […]
(Flow cytometry measures light scatter and fluorescence of single cells or particles in a stream.)

Data set [3] deals with HeLa cells. Kind of data set: In vitro transduction of DRI-NLS^647 cargo in HeLa cells (flow cytometry and fluorescence microscopy). To be noted: used at 10 μM; cargo 10 μM. In kind it is cell-based, Human. The procedure: as §1, with “Cells were washed once with PBS 1× and incubated in DMEM containing 10% FBS.” left out
as §2

For the next data set, the system named is cells. The conditions noted are these: following the cells being exposed to the shuttle agent and cargo; cited from earlier work.
A short description of the next data set: in vitro. The conditions noted are these: human, cerebrospinal or other body fluid.

Where two headings read alike, the source gives them in different places. Ends that are not written are not given here.

Consider `N=C(N)NCCC[C@H](NC(=O)[C@H](CCCNC(=N)N)NC(=O)[C@H](CCCNC(=N)N)NC(=O)[C@H](CCC(N)=O)NC(=O)[C@H](CCCNC(=N)N)NC(=O)[C@H](CCCNC(=N)N)NC(=O)[C@H](CCCCN)NC(=O)[C@H](CCCCN)NC(=O)[C@H](CCCNC(=N)N)NC(=O)CNC(=O)[C@@H](N)Cc1ccc(O)cc1)C(=O)O` [TAT], for which the viability at 5 min in data set [1] (concentrations of 10 to 220 μM (data not shown), read-out: viabilities) is > 80%.

With “FSD10scr: negative control peptide, same amino acids of FSD10 rearranged in a scrambled order (KWKLARAFARAIKKLGGSGGGSYARALRRQARTG; FSD10 Scarmble)”, the “nuclear cargo transduction of GFP-NLS by microscopy” value in the data set with HeLa cells [2] is reported as “no significant transduction”. In the data set with HeLa cells [3], the “nuclear cargo transduction of independent DRI-NLS^647 by microscopy” value was “no significant transduction”.

In the case of “His-CM18-PTD4: first generation shuttle agent (HHHHHHKWKLFKKIGAVLKVLTTGYARAAARQARA; His-CM18-PTD4)”, the “time to deliver GFP-NLS cargo to the cytosol” value in the data set on cells is 45 s.

For the compound “KWKLARAFARAIKKLGGSGGGSYARALRRQARTG [FSD10]”, in data set [1] (shuttle agent at 20 μM, 10 μM GFP-NLS), the viability at 5 min, 20 µM is 55%. The viability at 5 min, 40 µM in data set [1] (shuttle agent at 40 μM, 10 μM GFP-NLS) stood at 6%. Besides, the viability at 5 min in data set [1] (shuttle agent, 10 μM GFP-NLS, read-out: cell viabilities) was < 10%. The metabolised at 5 min in the data set “in vitro” was 40%.
